Test results taken from patent US9216968B2, “Heterocyclic derivative and pharmaceutical drug” (NIPPON SHINYAKU CO., LTD., priority 2011, dated 2015).
Where a name gives a salt, the structure may show the parent alone.

How the values were obtained:
A549 cells = assay: Inhibition of PGE2 production in A549 cell (IL-1β stimulated); assay type: cell-based, human; conditions: Homo sapiens, A549, 24 h, IL-1β 5 ng/well, PGE2 in culture medium
In short: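 A549 cells preincubated 60 min with compound in RPMI/3% FBS (final DMSO 0.10), then stimulated with IL-1β (5 ng/well) for 24 h at 37 °C. PGE2 measured by HTRF and PGF2α by EIA in medium; IC50 from inhibition relative to stimulated minus unstimulated production.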

human mPGES-1 = human mPGES-1 (Homo sapiens (Human), UniProt O14684); assay: mPGES-1 inhibiting activity (microsome fractions, PGE2 by HTRF); assay type: biochemical; conditions: microsomes from CHO-K1 cells transfected with human mPGES-1; PGH2 1 μM, 4° C., 60 seconds; read-out: mPGES-1 Inhibition IC50
In short: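 PGE2 formation read by HTRF after 60 s at 4 °C with 1 μM PGH2 substrate, following 20 min compound preincubation (1% DMSO) with human mPGES-1 microsomes from transfected CHO-K1 cells. Buffer: potassium phosphate, reduced glutathione, pH 7.4; IC50 from activity relative to enzyme-free blank.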

Sequence of human mPGES-1 (O14684 whole entry): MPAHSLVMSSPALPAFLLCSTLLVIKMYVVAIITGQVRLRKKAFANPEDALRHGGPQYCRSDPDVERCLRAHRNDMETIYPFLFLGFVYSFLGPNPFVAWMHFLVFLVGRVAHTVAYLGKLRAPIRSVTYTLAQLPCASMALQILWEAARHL

Row | IC50 (A549 cells) [nM] | IC50 (human mPGES-1) [nM] | Structure (SMILES)
1 | 253 | 1 | Cc1c(Cl)cccc1NC(=O)c1cc(NC(=O)c2c(Cl)cccc2Cl)cc2[nH]c([C@H]3CCCO3)nc12 [Example 128, N-(3-Chloro-2-methylphenyl)-6-{[(2,6-dichlorophenyl)carbonyl]amino}-2-[(2R)-tetrahydrofuran-2-yl]-1H-benzimidazole-4-carboxamide hydrochloride]
2 | 178 | 59.4 | Cc1c(Cl)cccc1NC(=O)c1cc(NC(=O)c2cc(Cl)ccc2Cl)cc2[nH]c([C@H]3CCCO3)nc12 [Example 129, N-(3-Chloro-2-methylphenyl)-6-{[(2,5-dichlorophenyl)carbonyl]amino}-2-[(2R)-tetrahydrofuran-2-yl]-1H-benzimidazole-4-carboxamide hydrochloride]
3 | > 10000 | 3.9 | Cc1c(Cl)cccc1NC(=O)c1cc(NC(=O)c2ccccc2C(F)(F)F)cc2[nH]c([C@@H]3CCC(=O)N3)nc12 [Example 130, N-(3-Chloro-2-methylphenyl)-2-[(2S)-5-oxopyrrolidin-2-yl]-6-({[2-(trifluoromethyl)phenyl]carbonyl}amino)-1H-benzimidazole-4-carboxamide hydrochloride]
4 | > 10000 | 32.8 | Cc1c(Cl)cccc1NC(=O)c1cc(NC(=O)c2ccccc2C(F)(F)F)cc2[nH]c([C@H]3CCC(=O)N3)nc12 [Example 131, N-(3-Chloro-2-methylphenyl)-2-[(2R)-5-oxopyrrolidin-2-yl]-6-({[2-(trifluoromethyl)phenyl]carbonyl}amino)-1H-benzimidazole-4-carboxamide hydrochloride]
5 | 590 | 2.2 | Cc1c(Cl)cccc1NC(=O)c1cc(NC(=O)c2ccccc2C(F)(F)F)cc2[nH]c(CC(=O)N3CCCC3)nc12 [Example 132, N-(3-Chloro-2-methylphenyl)-2-[2-oxo-2-(pyrrolidin-1-yl)ethyl]-6-({[2-(trifluoromethyl)phenyl]carbonyl}amino)-1H-benzimidazole-4-carboxamide hydrochloride]
6 | 488 | 7 | Cc1c(Cl)cccc1NC(=O)c1cc(NC(=O)c2ccccc2C(F)(F)F)cc2[nH]c(CC(=O)N(C)C)nc12 [Example 133, N-(3-Chloro-2-methylphenyl)-2-[2-(dimethylamino)-2-oxoethyl]-6-({[2-(trifluoromethyl)phenyl]carbonyl}amino)-1H-benzimidazole-4-carboxamide hydrochloride]
7 | 921 | 10.3 | CNC(=O)Cc1nc2c(C(=O)Nc3cccc(Cl)c3C)cc(NC(=O)c3ccccc3C(F)(F)F)cc2[nH]1 [Example 134, N-(3-Chloro-2-methylphenyl)-2-[2-(methylamino)-2-oxoethyl]-6-({[2-(trifluoromethyl)phenyl]carbonyl}amino)-1H-benzimidazole-4-carboxamide hydrochloride]
8 | 87.3 | 0.3 | Cc1c(Cl)cccc1NC(=O)c1cc(NC(=O)c2ccccc2C(F)(F)F)cc2[nH]c(Cl)nc12 [Example 135, 2-Chloro-N-(3-chloro-2-methylphenyl)-6-({[2-(trifluoromethyl)phenyl]carbonyl}amino)-1H-benzimidazole-4-carboxamide]
9 | 61.9 | 2.4 | COCCNc1nc2c(C(=O)Nc3cccc(Cl)c3C)cc(NC(=O)c3ccccc3C(F)(F)F)cc2[nH]1 [Example 136, N-(3-Chloro-2-methylphenyl)-2-[(2-methoxyethyl)amino]-6-({[2-(trifluoromethyl)phenyl]carbonyl}amino)-1H-benzimidazole-4-carboxamide hydrochloride]
10 | 1110 | 3.3 | Cc1c(Cl)cccc1NC(=O)c1cc(NC(=O)c2ccccc2C(F)(F)F)cc2[nH]c(NCCO)nc12 [Example 137, N-(3-Chloro-2-methylphenyl)-2-[(2-hydroxyethyl)amino]-6-({[2-(trifluoromethyl)phenyl]carbonyl}amino)-1H-benzimidazole-4-carboxamide hydrochloride]
11 | 87.4 | 2.2 | CNc1nc2c(C(=O)Nc3cccc(Cl)c3C)cc(NC(=O)c3ccccc3C(F)(F)F)cc2[nH]1 [Example 138, N-(3-Chloro-2-methylphenyl)-2-(methylamino)-6-({[2-(trifluoromethyl)phenyl]carbonyl}amino)-1H-benzimidazole-4-carboxamide hydrochloride]
12 | 72.8 | 1.9 | CCNc1nc2c(C(=O)Nc3cccc(Cl)c3C)cc(NC(=O)c3ccccc3C(F)(F)F)cc2[nH]1 [Example 139, N-(3-Chloro-2-methylphenyl)-2-(ethylamino)-6-({[2-(trifluoromethyl)phenyl]carbonyl}amino)-1H-benzimidazole-4-carboxamide hydrochloride]
13 | 33 | 0.2 | Cc1c(Cl)cccc1NC(=O)c1cc(NC(=O)c2ccccc2C(F)(F)F)cc2[nH]c(NCC(C)(C)C)nc12 [Example 140, N-(3-Chloro-2-methylphenyl)-2-[(2,2-dimethylpropyl)amino]-6-({[2-(trifluoromethyl)phenyl]carbonyl}amino)-1H-benzimidazole-4-carboxamide hydrochloride]
14 | 36.5 | 0.4 | Cc1c(Cl)cccc1NC(=O)c1cc(NC(=O)c2ccccc2C(F)(F)F)cc2[nH]c(NC3CCCC3)nc12 [Example 141, N-(3-Chloro-2-methylphenyl)-2-(cyclopentylamino)-6-({[2-(trifluoromethyl)phenyl]carbonyl}amino)-1H-benzimidazole-4-carboxamide hydrochloride]
15 | 82.7 | 0.4 | Cc1c(Cl)cccc1NC(=O)c1cc(NC(=O)c2ccccc2C(F)(F)F)cc2[nH]c(N3CCCCC3)nc12 [Example 142, N-(3-Chloro-2-methylphenyl)-2-(piperidin-1-yl)-6-({[2-(trifluoromethyl)phenyl]carbonyl}amino)-1H-benzimidazole-4-carboxamide hydrochloride]
16 | 87.5 | 5.3 | Cc1c(Cl)cccc1NC(=O)c1cc(NC(=O)c2ccccc2C(F)(F)F)cc2[nH]c(N3CCN(C)CC3)nc12 [Example 143, N-(3-Chloro-2-methylphenyl)-2-(4-methylpiperazin-1-yl)-6-({[2-(trifluoromethyl)phenyl]carbonyl}amino)-1H-benzimidazole-4-carboxamide dihydrochloride]
17 | 2990 | 9.7 | Cc1c(Cl)cccc1NC(=O)c1cc(NC(=O)c2ccccc2C(F)(F)F)cc2[nH]c(N(CCO)CCO)nc12 [Example 144, 2-[Bis(2-hydroxyethyl)amino]-N-(3-chloro-2-methylphenyl)-6-({[2-(trifluoromethyl)phenyl]carbonyl}amino)-1H-benzimidazole-4-carboxamide hydrochloride]
18 | 13 | 1.6 | Cc1c(Cl)cccc1NC(=O)c1cc(NC(=O)c2ccccc2C(F)(F)F)cc2[nH]c(N(C)C)nc12 [Example 145, N-(3-Chloro-2-methylphenyl)-2-(dimethylamino)-6-({[2-(trifluoromethyl)phenyl]carbonyl}amino)-1H-benzimidazole-4-carboxamide hydrochloride]
19 | 129 | 3.1 | Cc1c(Cl)cccc1NC(=O)c1cc(NC(=O)c2ccccc2C(F)(F)F)cc2[nH]c(NCCN3CCOCC3)nc12 [Example 146, N-(3-Chloro-2-methylphenyl)-2-{[2-(morpholin-4-yl)ethyl]amino}-6-({[2-(trifluoromethyl)phenyl]carbonyl}amino)-1H-benzimidazole-4-carboxamide hydrochloride]
20 | 186 | 15.8 | Cc1c(Cl)cccc1NC(=O)c1cc(NC(=O)c2ccccc2C(F)(F)F)cc2[nH]c(NCCN(C)C)nc12 [Example 147, N-(3-Chloro-2-methylphenyl)-2-{[2-(dimethylamino)ethyl]amino}-6-({[2-(trifluoromethyl)phenyl]carbonyl}amino)-1H-benzimidazole-4-carboxamide hydrochloride]
21 | 324 | 1.9 | Cc1c(Cl)cccc1NC(=O)c1cc(NC(=O)c2ccccc2C(F)(F)F)cc2[nH]c(N3CC(O)C3)nc12 [Example 148, N-(3-Chloro-2-methylphenyl)-2-(3-hydroxyazetidin-1-yl)-6-({[2-(trifluoromethyl)phenyl]carbonyl}amino)-1H-benzimidazole-4-carboxamide hydrochloride]
22 | 43.3 | 1 | Cc1c(Cl)cccc1NC(=O)c1cc(NC(=O)c2ccccc2C(F)(F)F)cc2[nH]c(N3CC[C@H](N(C)C)C3)nc12 [Example 149, N-(3-Chloro-2-methylphenyl)-2-[(3S)-3-(dimethylamino)pyrrolidin-1-yl]-6-({[2-(trifluoromethyl)phenyl]carbonyl}amino)-1H-benzimidazole-4-carboxamide dihydrochloride]
23 | 376 | 2.1 | Cc1c(Cl)cccc1NC(=O)c1cc(NC(=O)c2ccccc2C(F)(F)F)cc2[nH]c(N3CC[C@H](O)C3)nc12 [Example 150, N-(3-Chloro-2-methylphenyl)-2-[(3S)-3-hydroxypyrrolidin-1-yl]-6-({[2-(trifluoromethyl)phenyl]carbonyl}amino)-1H-benzimidazole-4-carboxamide hydrochloride]
24 | 328 | 11.6 | CCN(CC)CCNc1nc2c(C(=O)Nc3cccc(Cl)c3C)cc(NC(=O)c3ccccc3C(F)(F)F)cc2[nH]1 [Example 151, N-(3-Chloro-2-methylphenyl)-2-{[2-(diethylamino)ethyl]amino}-6-({[2-(trifluoromethyl)phenyl]carbonyl}amino)-1H-benzimidazole-4-carboxamide hydrochloride]
